Experimental data: patent US11667651B2, “Aminopyridine derivatives as phosphatidylinositol phosphate kinase inhibitors” (HiberCell, Inc., priority 2017, dated 2023)
pIC50: −log10 of the molar value.

How the values were obtained:
Assay type in all cases: biochemical
[1] = target: T1, PIP4K2A (Homo sapiens, UniProt P48426); assay: Kinase Assay PIP4K2 A (Table 2); set-up: 4 nM PIP4K2A (full length protein, SignalChem); purchased SignalChem; conditions: compounds listed under IC50 bins
T1 sequence (P48426 1-406): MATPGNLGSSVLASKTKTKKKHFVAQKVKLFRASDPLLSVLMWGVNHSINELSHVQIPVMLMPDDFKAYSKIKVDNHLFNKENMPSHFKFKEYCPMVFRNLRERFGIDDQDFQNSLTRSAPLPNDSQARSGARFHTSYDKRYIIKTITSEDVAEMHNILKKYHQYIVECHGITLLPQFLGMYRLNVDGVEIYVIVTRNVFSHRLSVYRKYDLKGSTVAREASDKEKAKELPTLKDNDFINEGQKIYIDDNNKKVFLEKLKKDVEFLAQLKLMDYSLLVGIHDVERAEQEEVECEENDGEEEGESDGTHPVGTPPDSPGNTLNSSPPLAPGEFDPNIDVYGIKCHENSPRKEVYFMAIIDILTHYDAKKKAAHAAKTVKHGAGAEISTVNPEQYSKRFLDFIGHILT
In short: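 ADP-Glo luminescent read-out after 1 h room-temperature kinase reaction, started with 60 μM ATP solution following 15 min compound pre-incubation. Enzyme/substrate mix: 4 nM full-length PIP4K2A plus 100 μM PI(5)P diC8; buffer MOPS pH 7.2 with 25 mM MgCl2 and Tween 20. IC50 from 10-point, 3-fold titrations normalized to DMSO.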

[2] = target: T2, PIP4K2B (Homo sapiens, UniProt P78356); assay: Trans-FI P kinase assay PIP4K2B (Table 4); conditions: compounds listed under IC50 bins; read-out: Trans-FI P kinase assays: PIP4K2B IC50
T2 construct: made in house; host or cells: E. coli
T2 sequence (P78356 1-416): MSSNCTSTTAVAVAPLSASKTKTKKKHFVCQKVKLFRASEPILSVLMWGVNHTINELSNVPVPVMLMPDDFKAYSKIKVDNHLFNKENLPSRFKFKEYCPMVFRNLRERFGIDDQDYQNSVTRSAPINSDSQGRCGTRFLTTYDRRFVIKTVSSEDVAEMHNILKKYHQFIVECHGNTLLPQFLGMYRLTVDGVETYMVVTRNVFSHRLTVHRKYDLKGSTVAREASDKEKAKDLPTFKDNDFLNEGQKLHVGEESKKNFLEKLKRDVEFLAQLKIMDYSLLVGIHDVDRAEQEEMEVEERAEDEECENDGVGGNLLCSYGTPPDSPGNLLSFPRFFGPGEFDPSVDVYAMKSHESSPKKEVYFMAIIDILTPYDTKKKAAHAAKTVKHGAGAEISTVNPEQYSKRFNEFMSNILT
In short: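 Transcreener FI detection (Ex 584/Em 623) of GDP, converted via calibration curve, gives IC50 from residual activity versus log concentration (highest 4.8 μM). Reaction: 80 μM PI5P plus DOPE carrier, 100 μM GTP, 5 nM GST-tagged enzyme, pH 7.3 HEPES with MgCl2 and 5% DMSO, 2 h after 1 h enzyme-compound preincubation at 27° C.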

[3] = target: T1, PIP4K2A; assay: ADP-glo kinase assay PIP4K 2A (Table 3); set-up: made in house; host or cells: E. coli; conditions: compounds listed under IC50 bins
In short: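 ADP-Glo luminescence detected ADP after 1 h RT reaction started by ATP (60 μM solution) on full-length PIP4K2A (4 nM in mix) and PI(5)P diC8 (100 μM in mix), preceded by 15 min enzyme-compound preincubation in MOPS pH 7.2/25 mM MgCl2. Percent inhibition versus DMSO over 10 concentrations fitted for IC50.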

| pIC50 [1] | pIC50 [2] | pIC50 [3] | SMILES |
| --- | --- | --- | --- |
| 7.00 to 8.00 | 7.00 to 8.00 | 6.00 to 7.00 | CN(C)C(=O)c1ccc(-c2ccc(Nc3cncc(NC(=O)CCc4cccc(NC(=O)OC(C)(C)C)c4)c3)nc2)cc1 [Example 101, tert-butyl (3-(3-((5-((5-(4-(dimethylcarbamoyl)phenyl)pyridin-2-yl)amino)pyridin-3-yl)amino)-3-oxopropyl)phenyl)carbamate] |
| 8.00 to 9.00 | 7.00 to 8.00 | 7.00 to 8.00 | CN(C)C(=O)c1ccc(-c2ccc(Nc3cncc(NC(=O)CCc4cccc(N)c4)c3)nc2)cc1 [Example 102, 4-(6-((5-(3-(3-aminophenyl)propanamido)pyridin-3-yl)amino)pyridin-3-yl)-N,N-dimethylbenzamide] |
| 8.00 to 9.00 | 7.00 to 8.00 | 7.00 to 8.00 | CN(C)C/C=C/C(=O)Nc1cccc(CCC(=O)Nc2cncc(Nc3ccc(-c4ccc(C(=O)N(C)C)cc4)cn3)c2)c1 [Example 103, (E)-4-(6-((5-(3-(3-(4-(dimethylamino)but-2-enamido)phenyl)propanamido)pyridin-3-yl)amino)pyridin-3-yl)-N,N-dimethylbenzamide] |
| 6.00 to 7.00 | 7.00 to 8.00 | 6.00 to 7.00 | CN(C)C(=O)c1ccc(-c2ccc(Nc3cncc(NC(=O)CCc4cccc(NC(=O)CN)c4)c3)nc2)cc1 [Example 107, 4-(6-((5-(3-(3-(2-aminoacetamido)phenyl)propanamido)pyridin-3-yl)amino)pyridin-3-yl)-N,N-dimethylbenzamide] |
| 6.00 to 7.00 | < 6.00 | 6.00 to 7.00 | CN(C)C/C=C/C(=O)NCC(=O)Nc1cccc(CCC(=O)Nc2cncc(Nc3ccc(-c4ccc(C(=O)N(C)C)cc4)cn3)c2)c1 [Example 108, (E)-4-(6-((5-(3-(3-(2-(4-(dimethylamino)but-2-enamido)acetamido)phenyl)propanamido)pyridin-3-yl)amino)pyridin-3-yl)-N,N-dimethylbenzamide] |
| 8.00 to 9.00 | 7.00 to 8.00 | 8.00 to 9.00 | CN(C)C(=O)c1ccc(-c2ccc(Nc3cncc(NC(=O)CCc4cccc(NC(=O)C5CCNCC5)c4)c3)nc2)cc1 [Example 109, N-(3-(3-((5-((5-(4-(dimethylcarbamoyl)phenyl)pyridin-2-yl)amino)pyridin-3-yl)amino)-3-oxopropyl)phenyl)piperidine-4-carboxamide] |
| 6.00 to 7.00 | < 6.00 | 6.00 to 7.00 | CN(C)C/C=C/C(=O)N1CCC(C(=O)Nc2cccc(CCC(=O)Nc3cncc(Nc4ccc(-c5ccc(C(=O)N(C)C)cc5)cn4)c3)c2)CC1 [Example 110, (E)-1-(4-(dimethylamino)but-2-enoyl)-N-(3-(3-((5-((5-(4-(dimethylcarbamoyl)phenyl)pyridin-2-yl)amino)pyridin-3-yl)amino)-3-oxopropyl)phenyl)piperidine-4-carboxamide] |
| 8.00 to 9.00 | 7.00 to 8.00 | 8.00 to 9.00 | CN(C)C(=O)c1ccc(-c2ccc(Nc3cncc(NC(=O)CCc4cccc(NC(=O)CCCCCN)c4)c3)nc2)cc1 [Example 111, 4-(6-((5-(3-(3-(6-aminohexanamido)phenyl)propanamido)pyridin-3-yl)amino)pyridin-3-yl)-N,N-dimethylbenzamide] |

More lines, now with the values behind:

| SMILES | pIC50 [1] | pIC50 [2] | pIC50 [3] |
| --- | --- | --- | --- |
| CC(=O)N1CCOc2ncc(Nc3ccc(-c4ccc(N5CCCC5=O)cc4)cn3)cc21 [Example 86, 1-(4-(6-((1-acetyl-2,3-dihydro-1H-pyrido[2,3-b][1,4]oxazin-7-yl)amino)pyridin-3-yl)phenyl)pyrrolidin-2-one] | 8.00 to 9.00 | 7.00 to 8.00 | 7.00 to 8.00 |
| O=C1CCCN1c1ccc(-c2ccc(Nc3cnc4c(c3)OCCO4)nc2)cc1 [Example 87, 1-(4-(6-((2,3-dihydro-[1,4]dioxino[2,3-b]pyridin-7-yl)amino)pyridin-3-yl)phenyl)pyrrolidin-2-one] | 7.00 to 8.00 | 7.00 to 8.00 | 6.00 to 7.00 |
| CN(C)C(=O)c1ccc(-c2ccc(Nc3cnc4c(c3)N(C(=O)CO)CCO4)nc2)cc1 [Example 89, 4-(6-((1-(2-hydroxyacetyl)-2,3-dihydro-1H-pyrido[2,3-b][1,4]oxazin-7-yl)amino)pyridin-3-yl)-N,N-dimethylbenzamide] | 8.00 to 9.00 | 7.00 to 8.00 | 7.00 to 8.00 |
| CN(C)C(=O)c1ccc(-c2ccc(Nc3cnc4c(c3)N(C(=O)c3ccccc3)CCO4)nc2)cc1 [Example 94, 4-(6-((1-benzoyl-2,3-dihydro-1H-pyrido[2,3-b][1,4]oxazin-7-yl)amino)pyridin-3-yl)-N,N-dimethylbenzamide] | 8.00 to 9.00 | 7.00 to 8.00 | 7.00 to 8.00 |
| CN(C)C(=O)c1ccc(-c2ccc(Nc3cnc4c(c3)N(C(=O)c3ccccn3)CCO4)nc2)cc1 [Example 95, N,N-dimethyl-4-(6-((1-picolinoyl-2,3-dihydro-1H-pyrido[2,3-b][1,4]oxazin-7-yl)amino)pyridin-3-yl)benzamide] | 7.00 to 8.00 | 7.00 to 8.00 | 7.00 to 8.00 |
| CN(C)C(=O)c1ccc(-c2ccc(Nc3cnc4c(c3)N(C(=O)C(C)(C)CO)CCO4)nc2)cc1 [Example 96, 4-(6-((1-(3-hydroxy-2,2-dimethylpropanoyl)-2,3-dihydro-1H-pyrido[2,3-b][1,4]oxazin-7-yl)amino)pyridin-3-yl)-N,N-dimethylbenzamide] | 8.00 to 9.00 | 7.00 to 8.00 | 7.00 to 8.00 |
| CN(C)C(=O)c1ccc(-c2ccc(Nc3cncc(NC(=O)c4cccc(NC(=O)OC(C)(C)C)c4)c3)nc2)cc1 [Example 98, tert-butyl (3-((5-((5-(4-(dimethylcarbamoyl)phenyl)pyridin-2-yl)amino)pyridin-3-yl)carbamoyl)phenyl)carbamate] | 7.00 to 8.00 | 7.00 to 8.00 | 6.00 to 7.00 |
| CN(C)C/C=C/C(=O)Nc1cccc(C(=O)Nc2cncc(Nc3ccc(-c4ccc(C(=O)N(C)C)cc4)cn3)c2)c1 [Example 100, (E)-4-(6-((5-(3-(4-(dimethylamino)but-2-enamido)benzamido)pyridin-3-yl)amino)pyridin-3-yl)-N,N-dimethylbenzamide] | 8.00 to 9.00 | 7.00 to 8.00 | 7.00 to 8.00 |
| CN(C)C(=O)c1ccc(-c2ccc(Nc3ccc(CNC(=O)c4cccc(NC(=O)OC(C)(C)C)c4)nc3)nc2)cc1 [Example 104, tert-butyl (3-(((5-((5-(4-(dimethylcarbamoyl)phenyl)pyridin-2-yl)amino)pyridin-2-yl)methyl)carbamoyl)phenyl)carbamate] | 6.00 to 7.00 | < 6.00 | < 6.00 |
| CN(C)C/C=C/C(=O)Nc1cccc(C(=O)NCc2ccc(Nc3ccc(-c4ccc(C(=O)N(C)C)cc4)cn3)cn2)c1 [Example 106, (E)-4-(6-((6-((3-(4-(dimethylamino)but-2-enamido)benzamido)methyl)pyridin-3-yl)amino)pyridin-3-yl)-N,N-dimethylbenzamide] | 6.00 to 7.00 | 7.00 to 8.00 | 6.00 to 7.00 |
| CN(C)C/C=C/C(=O)NCCCCCC(=O)Nc1cccc(CCC(=O)Nc2cncc(Nc3ccc(-c4ccc(C(=O)N(C)C)cc4)cn3)c2)c1 [Example 112, (E)-4-(6-((5-(3-(3-(6-(4-(dimethylamino)but-2-enamido)hexanamido)phenyl)propanamido)pyridin-3-yl)amino)pyridin-3-yl)-N,N-dimethylbenzamide] | 6.00 to 7.00 | < 6.00 | 6.00 to 7.00 |
